Measurements as given in patent US20070275382A1, “Biomarkers for the Efficacy of Somatostatin Analogue Treatment” (priority 2003, published 2007).
*1 amine or outer side, *2 acyl side, *3 side chain or, on linkers, in order; H or OH if unused. Where a SMILES comes first, the peptide text is derived from it. Side-chain parts run from the residue outwards. [ ]: non-standard residue; d: D form. The star is where a group is joined. Ethylenediamine = C(CN[*:2])N[*:1]; Hyp = O=C(O)[CH]1C[CH](O)CN1; Phg = N[CH](C(=O)O)c1ccccc1; CO = O=C([*:1])[*:2]; Bn = c1ccc(C*)cc1

System: Thyroid
Assay: Microarray gene expression profiling (HG-U95A), thyroid
Format: in vivo, cynomolgus monkeys
Description: Origin of tissue and processing. Male and female cynomolgus monkeys received subcutaneously pasireotide (100 μg/animal/day) or the vehicle for 14 days. On day 15, all animals were sacrificed and tissues for RNA extraction were immediately snap-frozen and kept at −80° C. until processing.
RNA expression profiling was conducted by means of the HG-U95A gene expression probe array (Affymetrix; Santa Clara, Calif. USA), containing more than 12,600 probe sets interrogating primarily full-length human genes and also some control probe sets. The experiment was conducted according to the recommendations of the manufacturer. Briefly, total RNA was obtained by acid guanidinium thiocyanate-phenol-chloroform extraction (Trizol®, Invitrogen Life Technologies, San Diego, Calif. USA) from each frozen tissue section. The total RNA was then purified on an affinity resin (Rneasy®, Qiagen) and quantified. Double stranded cDNA was synthesized with a starting amount of approximately 5 μg full-length total RNA using the Superscript® Choice System (Invitrogen Life Technologies, Carlsbad, Calif. USA) in the presence of a T7-(dT)24 DNA oligonucleotide primer. Following synthesis, the cDNA was purified by phenol/chloroform/isoamyl alcohol extraction and ethanol precipitation. The purified cDNA was then transcribed in vitro using the BioArray® High Yield RNA Transcript Labeling Kit (ENZO, Farmingdale, N.Y. USA) in the presence of biotinylated ribonucleotides form biotin labelled cRNA. The labelled cRNA was then purified on an affinity resin (Rneasy®, Qiagen), quantified and fragmented. An amount of approximately 10 μg labelled cRNA was hybridized for 16 hours at 45° C. to an expression probe array. The array was then washed and stained twice with streptavidin-phycoerythrin (Molecular Probes,) using the GeneChip® Fluidics Workstation 400 (Affymetrix, Santa Clara, Calif. USA). The array was then scanned twice using a confocal laser scanner (GeneArray® Scanner, Agilent, Palo Alto, Calif. USA) resulting in one scanned image. This resulting “.dat-file” was processed using the MAS4 program (Affymetrix) into a “.cel-file”. The “.cel file” was captured and loaded into the Affymetrix GeneChip® Laboratory Information Management System (LIMS). The LIMS database is connected to a UNIX Sun Solaris server through a network filing system that allows for the average intensities for all probes cells (CEL file) to be downloaded into an Oracle database (NPGN). Raw data was converted to expression levels using a “target intensity” of 150. The data were evaluated for quality control and loaded in the GeneSpring® software 4.2.4 (Silicon Genetics, Calif. USA) for analysis.
On the human Affymetrix HGU95Av2 chip, probe sets for individual genes contain 20 oligonucleotide pairs, each composed of a “perfect match” 25-mer and a “mismatch” 25-mer differing from the “perfect” match oligonucleotide at a single base. After probe labelling, hybridization, and laser scanning, the expression level was estimated by averaging the differences in signal intensity measured by oligonucleotide pairs of a given probe (AvgDiff value). The fold changes and directions were calculated for selected genes, from the differences of the AvgDiff values between controls and treated.
To identify genes that were impacted by pasireotide, the dataset was initially filtered to exclude in a first wave of analysis, genes whose values were systematically in the lower expression ranges where the experimental noise is high (at least 80 in a number of experiments corresponding to the smallest number of replicas of any experimental point). In a second round of selection a threshold p-value of 0.05 (based on a t-test) identified differences between treated and control based on a two component error model (Global Error Model) and, whenever possible, with a stepdown correction for multi-hypothesis testing (Benjamini and Hochberg false discovery rate). […]

[1] = ↑ increase, treated vs controls
[2] = ↓ decrease, treated vs controls

## NCCCCC1NC(=O)C(Cc2c[nH]c3ccccc23)NC(=O)C(c2ccccc2)NC(=O)C2CC(OC(=O)NCCN)CN2C(=O)C(Cc2ccccc2)NC(=O)C(Cc2ccc(OCc3ccccc3)cc2)NC1=O (stereo not drawn) [Pasireotide, cyclo[4-(NH2—C2H4—NH—CO—O)Pro-Phg-DTrp-Lys-Tyr(4-Bzl)-Phe]] (cyclo(F[Hyp]([CO-Ethylenediamine])[Phg]WKY(Bn)); configuration not given here)
0.1 mg/animal/14day
  IGF-1 expression level, AvgDiff (range): 58 (20 to 114)
Direction only, treated vs controls
  Endothelial differentiation-related factor 1 RNA expression change: related factor 1 ↑
[1]
  CD2 antigen (cytoplasmic tail)-binding protein 2 RNA expression fold change: ↑ x3.5
  Cadherin 13, H-cadherin (heart) RNA expression fold change: ↑ x2
  Cannabinoid receptor 2 (macrophage) RNA expression fold change: ↑ x3
  GABA (B) receptor 1, isoform a precursor RNA expression fold change: ↑ x2.5
  IFNα-inducible protein 27 RNA expression fold change: protein 27 ↑ x3
  IFNγ-inducible protein 30 RNA expression fold change: ↑ x3.5
  PDGF-associated Protein RNA expression fold change: Protein ↑ x2
  PDGFR β RNA expression fold change: ↑ x2
  Phosphatidyl ethanolamine N-methyl-transferase RNA expression fold change: ↑ x2
  Pro-platelet basic protein (includes platelet basic protein, β-thromboglobulin, connective tissue-activating peptide III, neu) 2 RNA expression fold change: 2 ↑ x3.5
  RANTES RNA expression fold change: ↑ x10.5
  Solute carrier family 21 (PG transporter), member 2 RNA expression fold change: member 2 ↑ x2
  TNF (ligand) superfamily, member 10 RNA expression fold change: ↑ x2
  Thrombospondin 2 RNA expression fold change: spondin 2 ↑ x2
  VWF precursor RNA expression fold change: precursor ↑ x2
[2]
  ATPase, Ca++ transporting, cardiac muscle, fast twitch 1 RNA expression fold change: ↓ x4.5
  Adenylate cyclase activating polypeptide precursor RNA expression fold change: ↓ x1.5
  Adrenergic, α-2C-, receptor RNA expression fold change: ↓ x2.5
  Bcl-2 binding component 3 RNA expression fold change: ↓ x2
  Brain cannabinoid receptor 1 RNA expression fold change: ↓ x2
  CD2 antigen (p50), sheep red blood cell receptor RNA expression fold change: ↓ x7.5
  COL1A1 and PDGFB fusion transcript RNA expression fold change: transcript ↓ x6
  Calcium/calmodulin dependent protein kinase 1 RNA expression fold change: ↓ x2
  Calcium/calmodulin-dependent PK IV RNA expression fold change: IV ↓ x7.5
  Calmodulin-dependent PK IV (CaM-kinase IV) RNA expression fold change: IV) ↓ x7.5
  Cdc-like 5 (cholinesterase-related cell division controller) RNA expression fold change: ↓ x2
  Cdk 5, regulatory subunit 1 (p35) RNA expression fold change: ↓ x5
  Chemokine (C-X-C motif), receptor 4 (fusin) RNA expression fold change: (fusin) ↓ x3
  Cholecystokinin B receptor RNA expression fold change: B receptor ↓ x3
  Cyclin B2 RNA expression fold change: ↓ x2.5
  DAG 1 kinase, α (80 kD) RNA expression fold change: ↓ x4
  EGF-like module containing, mucin-like, hormone receptor-like sequence 1 RNA expression fold change: ↓ x5
  FKBP-associated protein RNA expression fold change: protein ↓ x2.5
  Flt3 ligand RNA expression fold change: Flt3 ligand ↓ x4.5
  Fms-related tyrosine kinase 1(VEGF/vascular permeability factor receptor) RNA expression fold change: ↓ x2
  GABA (A) receptor, γ2 precursor RNA expression fold change: ↓ x1.5
  Gastric inhibitory polypeptide 1 receptor RNA expression fold change: receptor ↓ x2
  Glutamate receptor, metabotropic 2 precursor RNA expression fold change: precursor ↓ 3.5
  Growth arrest-specific 1 RNA expression fold change: ↓ x2.5
  IFNγ responsive transcript RNA expression fold change: transcript ↓ x1.5
  IGF-1 RNA expression fold change: IGF-1 ↓ x1.5
  IL2-inducible T-cell kinase RNA expression fold change: cell kinase ↓ x12
  IL9 receptor RNA expression fold change: ↓ x2
  IP3 receptor type 3 RNA expression fold change: ↓ x1.5
  K+ voltage-gated channel, shaker-related subfamily, member 3 RNA expression fold change: ↓ x4.5
  LTB4 receptor (chemokine receptor-like 1) RNA expression fold change: ↓ x1.5
  Lymphocyte specific protein tyrosine kinase RNA expression fold change: ↓ x4
  P56lck RNA expression fold change: P56lck ↓ x18
  PDGFR α RNA expression fold change: ↓ x3
  PIP 5-phosphatase type IV RNA expression fold change: x3
  PLC, γ 1 (formerly subtype 148) RNA expression fold change: 148) ↓ x2
  RAG1 RNA expression fold change: RAG1 ↓ x18
  RAG2 RNA expression fold change: RAG2 ↓ x5
  SH2 domain protein 1A, Duncan's disease (lymphoproliferative syndrome) RNA expression fold change: ↓ x7.5
  Signalling lymphocytic activation molecule RNA expression fold change: molecule ↓ x4.5
  TCR ζ chain precursor RNA expression fold change: precursor ↓ x5.5
  TSHR RNA expression fold change: TSHR ↓ x2
  Transcription factor 7 (T-cell specific, HMG-box) RNA expression fold change: box) ↓ x16.5
  c-AMP responsive element binding protein 1 RNA expression fold change: protein 1 ↓ x2
